According to EPA's ToxValDB 9.5 (doi:10.2903/j.efsa.2017.4912):
≈ marks a conversion by molar mass, not a printed value.

How the values were obtained:
[1] = system: Oryctolagus sp.
[2] = system: Rattus norvegicus; conditions: for NOAEL: body weight
[3] = system: Anas platyrhynchos; conditions: reproductive; duration: 21 weeks; M; reproduction
[4] = system: Apis mellifera; conditions: acute, duration: 48 hours, mortality
[5] = system: Colinus virginianus
[6] = system: Cyprinodon variegatus; conditions: chronic/long-term; duration: 28 days; other
[7] = system: Folsomia candida; conditions: chronic/long-term; duration: 28 days
[8] = system: Oncorhynchus mykiss; conditions: acute; duration: 96 hours; mortality
[9] = system: Tagia sp.; conditions: chronic/long-term; duration: 56 days
[10] = system: Typhlodromus pyri; assay: LR50; higher = less toxic; conditions: not reported; duration: 7 days; mortality

With COC(=O)c1ccccc1S(=O)(=O)NC(=O)Nc1nc(C)nc(OC)n1 [Metsulfuron-methyl] the NOAEL ([1]; developmental, development) was 25 mg/kg-day and the NOAEL ([2]; chronic, duration: 2 years) was 22.4 mg/kg-day.

With COC(=O)c1ccccc1S(=O)(=O)NC(=O)N(C)c1nc(C)nc(OC)n1 [Tribenuron-methyl] the NOEL [3] was 21 mg/kg-day, the LD50 ([4]; dermal) was > 98.4 µg/piece and the LD50 ([4]; oral, unspecified) was > 9.1 µg/piece. For the same molecule, the LD50 ([5]; acute, oral, mortality) was > 2250 mg/kg-day, the NOEL ([5]; reproduction developmental, duration: 23 weeks, reproduction) was 21 mg/kg-day and the NOEC [6] was 11.9 mg/L. The NOEC [7] was 30.8 mg/kg, the LC50 [8] was 738 µg/mL (≈ 1870 µM) and the NOAEL ([1]; reproduction developmental, mortality) was 20 mg/kg-day. For the same molecule, the LD50 ([2]; acute, oral, mortality) was > 5000 mg/kg-day, the NOAEL ([2]; chronic, duration: 2 years) was 1 mg/kg-day and the NOAEL ([2]; reproduction developmental) was 2 mg/kg-day. The NOAEL ([2]; subchronic, duration: 90 days, oral) was 7 mg/kg-day, the NOEC [9] was 3.2 mg/kg and the LR50 [10] was > 29.6 g/ha.
